Results taken from patent US20120046461A1, “STEROIDAL ANTI-HORMONE HYBRIDS” (Northeastern University, priority 2009, published 2012).
Where “and” joins values, the source holds several entries; their conditions need not be identical. Equal values may be shown once.

What was measured:
[1] = system: MCF-7 cells; test: Anti-proliferative assay (MTS/PMS), MCF-7; format: cell-based; conditions: 72 h
Procedure: (§1) MCF-7 and SKBr3 cells were maintained in a 1:1 mixture of Advanced DMEM/F12 (Gibco) supplemented with nonessential amino acids, L-glutamine (2 mM), streptomycin ([…]), penicillin (100 units/mL), and 10% FBS. Cells were grown to confluence in a humidified atmosphere (37° C., 5% CO2), seeded (2000/well, 100 μL) in 96-well plates, and allowed to attach overnight. Compound or GDA at varying concentrations in DMSO (1% DMSO final concentration) was added, and cells were returned to the incubator for 72 h. At 72 h, the number of viable cells was determined using an MTS/PMS cell proliferation kit (Promega) per the manufacturer's instructions. Cells incubated in 1% DMSO were used as 100% proliferation, and values were adjusted accordingly. IC50 values were calculated from separate experiments performed in triplicate using GraphPad Prism.

[2] = system: SKBr3 cells; test: Anti-proliferative assay (MTS/PMS), SKBr3; format: cell-based; conditions: 72 h
Procedure: as §1

[3] = system: alkaline phosphatase in Ishikawa cells; test: Stimulation of alkaline phosphatase in Ishikawa cells (estrogenic potency); format: cell-based, human; conditions: for Ishikawa - RSA: relative stimulatory activity in comparison to E2 = 100%
Procedure: The methodology for determining estrogenic potency, estrogen receptor binding, and stimulation of an estrogen responsive gene in alkaline phosphatase in the Ishikawa cell was performed as described. (Stabile, et al. (2005) Cancer Res. 65:1459-1470; Perez-Soler (2007) Clin. Can. Res. 13(Suppl. 15):[…]; Nicholson, et al. (2000) British J. Cancer 82:501-513; Schiff, et al. (2004) Clin. Can. Res. 10 (supp.1):331s-336s).
(§2) The induction of AlkP in human endometrial adenocarcinoma cells (Ishikawa) grown in 96-well microtiter plates was performed as described. The cells were grown in Phenol red-free medium with estrogen-depleted (charcoal stripped) bovine serum in the presence or absence of varying amounts of the steroids across a dose range of at least 6 orders of magnitude. After 3 days, the cells were washed, frozen, thawed, and then incubated with 5 mM p-nitrophenyl phosphate, a chromogenic substrate for the AlkP enzyme, at pH 9.8. To ensure linear enzymatic analysis, the plates were monitored kinetically for the production of p-nitrophenol at 405 nm.
(§3) Each compound was analyzed in at least 3 separate experiments performed in duplicate. The Ki and RSA (RSA=ratio of 1/EC50 of the steroid analog to that of E2×100) were determined using the curve fitting program Prism. The results are shown below in FIGS. 1A-1C, 2, 3, and 4.

[4] = system: alkaline phosphatase in Ishikawa cells; test: Inhibition of E2-stimulated alkaline phosphatase in Ishikawa cells; format: cell-based, human; conditions: Ki determined in the presence of I nm E2
Procedure: as §2, §3

[5] = system: MCF-7 (ER-positive) breast cancer cell line; test: Cellular proliferation of MCF-7 (ER-positive) breast cancer cells, mitomycin series; format: cell-based; conditions: MCF-7 cells, FIG. 2, 4, 5
From the text: Another series of biological assays (Litzenburger, et al., Clin. Can. Res. (2009) 15:226 and Georghis, et al., Can. Chemothera. Pharmacol. (1992) 29:290.) are run to evaluate the effect of the mitomycin moiety on cellular proliferation of MCF-7 (ER-positive) and MDA-231 (ER-negative) breast cancer cell lines.

[6] = target: T1, LBD of human ERα (M250-V595) (Homo sapiens, UniProt P03372); test: Competitive binding of [3H]E2 to ERα-LBD (RBA); conditions: RBA against E2
T1 construct: the LBD of human ERα (M250-V595) is expressed; made in house; host or cells: Escherichia coli (lysates)
T1 sequence (P03372 250-595): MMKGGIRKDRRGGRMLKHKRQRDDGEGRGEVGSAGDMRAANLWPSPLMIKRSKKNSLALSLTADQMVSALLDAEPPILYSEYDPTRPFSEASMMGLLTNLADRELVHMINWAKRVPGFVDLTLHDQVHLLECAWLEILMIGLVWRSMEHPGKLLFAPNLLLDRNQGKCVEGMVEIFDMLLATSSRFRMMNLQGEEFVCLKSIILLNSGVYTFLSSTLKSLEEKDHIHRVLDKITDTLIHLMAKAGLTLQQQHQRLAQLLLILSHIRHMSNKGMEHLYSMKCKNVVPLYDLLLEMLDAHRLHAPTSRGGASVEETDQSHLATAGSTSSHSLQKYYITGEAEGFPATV
Procedure: (§4) A. Competitive Binding to Rat Cytosolic ER, Human LBD-ERα and Human LBD-ERβ
Biological evaluation used competitive binding assays with estradiol on the ERα-LBD. […] After incubation, the media was aspirated, the plates were washed 3 times, and the receptor-bound radioactivity absorbed to the plates was extracted with methanol and counted.
(§5) The ability of the described ERα ligands to bind to the ER was determined through their RBA against E2, in the competitive binding assay described above.

[7] = target: T2, Human LBD-ERβ (Homo sapiens, UniProt Q92731); test: Competitive binding to ERβ (RBA); conditions: for RBA ERβ: RBA against E2
T2 construct: Human LBD-ERα and Human LBD-ERβ
Procedure: as §4
Biological evaluation used competitive binding assays with estradiol on the ERα-LBD. Binding affinities of the estradiol derivatives relative to E, were performed in incubations with the LBD of ERα. in lysates of Escherichia coli in which the LBD of human ERα (M250-V595) is expressed as described in Antonello, et al. (J. Med. Chem. (2006) 49:6642-6645), Morphy, et al. (J. Med. Chem. (2006), 49:4961-4970); Meunier (Accounts Chem. Res. (2007), and Ojima (Accounts Chem. Res. (2007). The assay was perfoiiued overnight in phosphate buffered saline +1 mM EDTA at RT. The competition for binding of [^3H]E2 to the LBD of the E2-derivatives in comparison to E2, relative binding affinity (RBA) was determined over a range of concentrations from 10^−12 to 10^−6M. After incubation, the media was aspirated, the plates were washed 3 times, and the receptor-bound radioactivity absorbed to the plates was extracted with methanol and counted.
as §5

T2 sequence (Q92731 264-498 limits assumed): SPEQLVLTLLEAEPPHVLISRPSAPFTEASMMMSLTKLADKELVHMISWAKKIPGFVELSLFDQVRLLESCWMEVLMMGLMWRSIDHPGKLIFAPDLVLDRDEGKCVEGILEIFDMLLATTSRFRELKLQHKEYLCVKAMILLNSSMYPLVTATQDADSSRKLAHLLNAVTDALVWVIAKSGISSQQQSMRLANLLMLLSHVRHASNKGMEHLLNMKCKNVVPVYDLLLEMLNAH

Molecule “Geldanamycin-aminomethyl-triazolo-ethoxy Anti-Estrogen [Compound 3-13]” has an EC50 [1] of 1200 ± 90 nM and an EC50 [2] of 710 ± 160 nM.

In the case of “N-propargyl-N′-methyl-mitomycin C [EH-N9-006]”, the “Ishikawa - RSA” value [3] is reported as 0% and the Ki [4] is reported as 40 ± 4 nM.

In the case of “Estradiol [Compound E2, reference compound]”, the EC50 ([3]; Ishikawa cells, read-out: EC50 of E2, alkaline phosphatase induction) is reported as ~0.2 nM.

“Geldanamycin aminopentanamidocarbonylphenyl-methyl difluorocyclooctenyltriazolo-ethoxy Anti-Estrogen [Compound 3-17]” gave an EC50 [1] of 17000 nM.

`C[C@]12C[C@H](c3ccc(OCCOCCOCCN=[N+]=[N-])cc3)[C@@H]3c4ccc(O)cc4CC[C@H]3[C@@H]1CC[C@@H]2O` [EH-N7-092, 11β-[4-(ω-azido-triethyleneglycoloxy)]-phenyl-estradiol] was tested, and the “Ishikawa - RSA” value [3] was 0%.

In the case of `CO[C@@]12[C@H](COC(N)=O)C3=C(C(=O)C(C)=C(N)C3=O)N1C[C@@H]1N[C@@H]12` [mitomycin C], the “anti-proliferative response” value [5] is reported as “more potent in the MCF-7 vs. the MDA-231 cell lines”.

Work on “Geldanamycin-aminoheptaethylene glycolyl-triazolo-methylaminoethoxy Anti-Estrogen [Compound 3-15]” yielded an EC50 [1] of 102 ± 5 nM.

`C[C@]12C[C@H](c3ccc(OCCN=[N+]=[N-])cc3)[C@@H]3c4ccc(O)cc4CC[C@H]3[C@@H]1CC[C@@H]2O` [Compound 2-13, (8S,9R,11S,13S,14S,17S)-11-(4-(2-azidoethoxy)phenyl)-7,8,9,11,12,13,14,15,16,17-decahydro-13-methyl-6H-cyclopenta[a]phenanthrene-3,17-diol] was tested, and the “RBA ERα” value [6] was 39.3±9.0 and 39.3, the “RBA ERα” value ([6]; listed as drawing 40) was 39.3 ± 9.0 and the “ER-subtype selectivity” value ([7]; ERα vs ERβ) was “does not differentiate between ERα and ERβ”. For the same molecule, the “RBA ERβ” value [7] was 33.7±1.77, the “RBA ERβ” value ([7]; listed as drawing 40) was 33.7 ± 1.77 and the β/α ([7]; ratio of RBA ERβ to RBA ERα) was 0.86.
